In US10968193B2, “Antidiabetic bicyclic compounds” (Merck Sharp & Dohme Corp., priority 2014, dated 2021):

Molecular target: T1, human GPR40 (Homo sapiens, UniProt O14842)
T1 construct: expressed in transfected cells; host or cells: HEK cells stably expressing the aequorin reporter
Assay: Inositol Phosphate Turnover (IP1) Assay 2
Format: cell-based
Details: HEK cells stably expressing human GPR40; 15,000 cells per well; compound acoustically transferred; CisBio IP-One kit
Procedure: Human and mouse GPR40 stable cell-lines were generated in CHO cells stably expressing NFAT BLA (Beta-lactamase). A human GPR40 stable cell-line was generated in HEK cells stably expressing the aequorin expressing reporter. The expression plasmids were transfected using lipofectamine (Life Technologies) following manufacturer's instructions. Stable cell-lines were generated following drug selection.
Inositol Phosphate Turnover (IP1) Assay 2:
The assay was performed in 384-well format. HEK cells stably expressing human GPR40 were plated at 15,000 cells per well in growth medium (DMEM/10% fetal calf serum). Cell plates were then incubated 16 hours at 37 degrees in a 5% CO2 incubator.
Measurement of Inositol Phosphate Turnover (IP1) was performed using the CisBio IP-One kit (Part number 62IPAPEB). After the 16 hour incubation, the cells were washed with HEPES buffer and 10 ul of stimulation buffer (prepared as described in the kit) was added to each well. In a separate plate, compounds were diluted in DMSO (400-fold over the final concentration in the assay well) and 25 nl was acoustically transferred to the appropriate well in the assay cell plate. The plates were then incubated for 60 minutes at 37 degrees. 10 ul of detection buffer (also prepared as described in the IP-One kit) was added to each well and the plates were incubated for 60 minutes in the dark. The plates were then read in a Perkin Elmer EnVision or equivalent reader able to measure FRET. Fluorescent ratio of emission at 665 and 620 nm was then converted to IP1 concentration by back calculating from an IP1 standard curve prepared at the time of the assay.

T1 sequence (O14842 whole entry): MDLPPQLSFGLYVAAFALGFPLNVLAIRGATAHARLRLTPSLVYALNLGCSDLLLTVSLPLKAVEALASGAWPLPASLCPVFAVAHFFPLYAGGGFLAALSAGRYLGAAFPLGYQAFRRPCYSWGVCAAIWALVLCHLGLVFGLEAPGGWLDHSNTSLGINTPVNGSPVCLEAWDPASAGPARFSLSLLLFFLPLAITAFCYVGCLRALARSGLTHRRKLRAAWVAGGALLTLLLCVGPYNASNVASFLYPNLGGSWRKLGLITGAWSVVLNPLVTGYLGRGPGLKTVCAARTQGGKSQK

| Compound | EC50 [nM] |
| --- | --- |
| COc1cc(-c2ccc(C3CCc4ccc([C@H](C5CC5)[C@H](C)C(=O)O)cc4O3)cc2CN2C3CCC2CC3)c(F)cn1 (some centres unmarked) [Example 69] | 2.6 |
| COc1cc(-c2ccc(C3CCc4ccc([C@H](C5CC5)[C@H](C)C(=O)O)cc4O3)cc2CN2CCC2C(F)(F)F)c(F)cn1 (some centres unmarked) [Example 72] | 1.2 |
| COc1cc(-c2ccc([C@H]3CCc4ccc([C@H](C5CC5)[C@H](C)C(=O)O)cc4O3)cc2[C@H](C)N(C)C)c(F)cn1 [Example 80, (2S,3R)-3-cyclopropyl-3-((R)-2-(3-((S)-1-(dimethylamino)ethyl)-4-(5-fluoro-2-methoxypyridin-4-yl)phenyl)chroman-7-yl)-2-methylpropanoic acid] | 11 |
| COc1cc(-c2ccc([C@H]3CCc4ccc([C@H](C5CC5)[C@H](C)C(=O)O)cc4O3)cc2[C@H](C)N(C)C)c(F)cn1 [Example 82, (2S,3R)-3-cyclopropyl-3-((R)-2-(3-((S)-1-(dimethylamino)ethyl)-4-(5-fluoro-2-methoxypyridin-4-yl)phenyl)chroman-7-yl)-2-methylpropanoic acid] | 13 |
| COc1cc(-c2ccc(C3CCc4ccc([C@H](C5CC5)[C@H](C)C(=O)O)cc4O3)cc2C(C)N2CCCC2)c(F)cn1 (stereo partly drawn) [Example 84, Methyl (2S,3R)-3-cyclopropyl-3-(2-(4-(5-fluoro-2-methoxypyridin-4-yl)-3-(1-(pyrrolidin-1-yl)ethyl)phenyl)chroman-7-yl)-2-methylpropanoic acid] | 2 |
| COc1cc(-c2ncc(C3CCc4ccc([C@H](C5CC5)[C@H](C)C(=O)O)cc4O3)nc2CN2CCCC2)c(F)cn1 (stereo partly drawn) [Example 110, (2S,3R)-3-cyclopropyl-3-(2-(5-(5-fluoro-2-methoxypyridin-4-yl)-6-(pyrrolidin-1-ylmethyl)pyrazin-2-yl)chroman-7-yl)-2-methylpropanoic acid] | 824 |

The remaining lines, values ahead:

| EC50 [nM] | Compound |
| --- | --- |
| 0.5 | COc1cc(-c2ccc(C3CCc4ccc([C@H](C5CC5)[C@H](C)C(=O)O)cc4O3)cc2CN2[C@H](C)CC[C@H]2C)c(F)cn1 (some centres unmarked) [Example 70] |
| 29 | CCOc1cc(-c2ccc(C3CCc4ccc([C@H](C5CC5)[C@H](C)C(=O)O)cc4O3)cc2CN2CCCC2)c(F)cn1 (some centres unmarked) [Example 77] |
| 4840 | COc1c[nH]nc1-c1ccc([C@@H]2CCc3ccc([C@H](C4CC4)[C@H](C)C(=O)O)cc3O2)cc1CN1CCCC1 [Example 79, Sodium (2S,3R)-3-cyclopropyl-3-((S)-2-(4-(4-methoxy-1H-pyrazol-3-yl)-3-(pyrrolidin-1-ylmethyl)phenyl)chroman-7-yl)-2-methylpropanoate] |
| 4 | COc1cc(-c2ccc([C@H]3CCc4ccc([C@H](C5CC5)[C@H](C)C(=O)O)cc4O3)cc2[C@@H](C)N(C)C)c(F)cn1 [Example 81, (2S,3R)-3-cyclopropyl-3-((R)-2-(3-((R)-1-(dimethylamino)ethyl)-4-(5-fluoro-2-methoxypyridin-4-yl)phenyl)chroman-7-yl)-2-methylpropanoic acid] |
| 3 | COc1cc(-c2ccc(C3CCc4ccc([C@H](C5CC5)[C@H](C)C(=O)O)cc4O3)cc2[C@@H](C)N(C)C)c(F)cn1 (stereo partly drawn) [Example 83, (2S,3R)-3-cyclopropyl-3-((R)-2-(3-((R)-1-(dimethylamino)ethyl)-4-(5-fluoro-2-methoxypyridin-4-yl)phenyl)chroman-7-yl)-2-methylpropanoic aid] |
| 0.8 | COC[C@@H]1CCCN1Cc1cc([C@@H]2CCc3ccc([C@H](C4CC4)[C@H](C)C(=O)O)cc3O2)ccc1-c1cc(OC)ncc1F [Example 134, (2S, 3R)-3-cyclopropyl-3-((S)-2-(4-(5-fluoro-2-methoxypyridin-4-yl)-3-(((S)-2-(methoxymethyl)pyrrolidin-1-yl)methyl)phenyl)chroman-7-yl)-2-methylpropanoic acid] |
| 5 | COC[C@@H]1CCCN1Cc1cc([C@H]2CCc3ccc([C@H](C4CC4)[C@H](C)C(=O)O)cc3O2)ccc1-c1cc(OC)ncc1F [Example 135] |
| 4.6 | COc1cc(-c2ccc([C@H]3CCc4ccc([C@H](C5CC5)[C@H](C)C(=O)O)cc4O3)cc2CN2CCC[C@@H]2C)c(F)cn1 [Example 136] |
